Laboratory results published in ChEMBL document CHEMBL1147456, “Binding modes of 6,7 di-substituted 4-anilinoquinoline-3-carbonitriles to EGFR” (Bioorg Med Chem Lett, 2004).

Target: Epidermal growth factor receptor (Homo sapiens, UniProt P00533)
Test: Concentration required to inhibit autophosphorylation of cytoplasmic domain of epidermal growth factor receptor (EGFR)

Chain of Epidermal growth factor receptor (P00533 whole entry, the tested form may be a part): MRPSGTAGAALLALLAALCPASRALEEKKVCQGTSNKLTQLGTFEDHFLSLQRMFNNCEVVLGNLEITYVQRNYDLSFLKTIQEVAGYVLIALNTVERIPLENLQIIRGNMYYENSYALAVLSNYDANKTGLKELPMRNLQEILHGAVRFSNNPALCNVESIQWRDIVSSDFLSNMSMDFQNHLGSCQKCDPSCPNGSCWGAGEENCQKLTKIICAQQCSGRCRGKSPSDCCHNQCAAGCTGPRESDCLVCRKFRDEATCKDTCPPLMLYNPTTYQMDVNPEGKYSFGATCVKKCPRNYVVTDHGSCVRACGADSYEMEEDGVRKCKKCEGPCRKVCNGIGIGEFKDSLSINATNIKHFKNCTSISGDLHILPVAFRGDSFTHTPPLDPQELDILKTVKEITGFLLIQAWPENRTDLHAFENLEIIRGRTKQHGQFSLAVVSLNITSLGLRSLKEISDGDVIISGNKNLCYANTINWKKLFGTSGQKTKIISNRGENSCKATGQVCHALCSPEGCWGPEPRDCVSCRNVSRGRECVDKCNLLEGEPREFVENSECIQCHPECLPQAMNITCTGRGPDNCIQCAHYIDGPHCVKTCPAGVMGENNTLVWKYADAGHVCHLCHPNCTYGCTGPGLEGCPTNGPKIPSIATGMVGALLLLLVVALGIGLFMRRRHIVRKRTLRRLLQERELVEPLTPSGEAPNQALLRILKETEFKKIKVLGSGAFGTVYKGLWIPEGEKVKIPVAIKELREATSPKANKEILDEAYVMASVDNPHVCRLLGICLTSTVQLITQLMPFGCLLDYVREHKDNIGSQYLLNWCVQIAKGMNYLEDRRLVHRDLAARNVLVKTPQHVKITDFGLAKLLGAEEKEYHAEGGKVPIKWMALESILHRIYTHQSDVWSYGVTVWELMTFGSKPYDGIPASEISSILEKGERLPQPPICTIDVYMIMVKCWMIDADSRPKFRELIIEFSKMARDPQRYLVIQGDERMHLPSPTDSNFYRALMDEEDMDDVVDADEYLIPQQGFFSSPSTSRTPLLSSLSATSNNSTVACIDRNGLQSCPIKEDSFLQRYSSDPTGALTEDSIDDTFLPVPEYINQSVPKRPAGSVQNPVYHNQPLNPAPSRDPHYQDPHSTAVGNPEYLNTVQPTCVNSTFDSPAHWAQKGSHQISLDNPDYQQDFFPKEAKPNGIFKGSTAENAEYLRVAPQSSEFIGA

- IC50: 150 nM
SMILES: COC[C@@H]1CCCN1CC#CC(=O)Nc1ccc2ncc(C#N)c(Nc3cccc(Br)c3)c2c1
